Test results published in ChEMBL document CHEMBL1201862, “PubChem BioAssay data set” (2004).
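Step 1: Grow cells in 96-well plates. Step 2: Expose to compound for 48 hours at 5 concentrations. Step 3: Interpolate endpoints linearly; if unreached, use highest concentration. GI50: concentration for 50% inhibition of growth.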 The source made the active and inactive calls. Cut-off read from the data, not from the text of the source: active = GI50 up to about 1.1 µM and inactive = higher.

Key:
Test in all cases: NCI tumour cell line growth inhibition, 48 h
[1] = tested on: CCRF-CEM
[2] = tested on: EKVX
[3] = tested on: HCT-15
[4] = tested on: HOP-62
[5] = tested on: HOP-92
[6] = tested on: KM12
[7] = tested on: NCI-H23
[8] = tested on: NCI-H460
[9] = tested on: OVCAR-3
[10] = tested on: OVCAR-5
[11] = tested on: SK-MEL-2
[12] = tested on: SK-MEL-5
[13] = tested on: SNB-19
[14] = tested on: UACC-257
[15] = tested on: HCT-116
[16] = tested on: OVCAR-8
[17] = tested on: RXF 393
[18] = tested on: SN12C
[19] = tested on: SR

Row | SMILES | GI50 [1] | GI50 [2] | GI50 [3] [µM] | GI50 [4] | GI50 [5] | GI50 [6] | GI50 [7] | GI50 [8] | GI50 [9] | GI50 [10] | GI50 [11] | GI50 [12] | GI50 [13] | GI50 [14] | GI50 [15] | GI50 [16] | GI50 [17] | GI50 [18] | GI50 [19]
1 | CCC1C(=O)OCc2c1cc1n(c2=O)C(CC)c2c-1nc1ccccc1c2Cl (stereo unspecified) | 11.6 µM (inactive) | 25.2 µM (inactive) | 36.6 | 20.7 µM (inactive) | 26.9 µM (inactive) | 24.6 µM (inactive) | 25.6 µM (inactive) | 15.1 µM (inactive) | 20.3 µM (inactive) | 23.1 µM (inactive) | 21 µM (inactive) | 16.7 µM (inactive) | 29.6 µM (inactive) | 29.6 µM (inactive) |  |  |  |  | 
2 | CCOc1ccc(NC(=O)CC2SC(N)=NC2=O)cc1 (stereo unspecified) | > 100 µM (inactive) | > 100 µM (inactive) |  | > 100 µM (inactive) | 55.8 µM (inactive) | > 100 µM (inactive) | > 100 µM (inactive) | > 100 µM (inactive) | > 100 µM (inactive) | > 100 µM (inactive) | > 100 µM (inactive) | > 100 µM (inactive) | > 100 µM (inactive) | > 100 µM (inactive) | > 100 µM (inactive) | > 100 µM (inactive) | > 100 µM (inactive) | > 100 µM (inactive) | 
3 | COc1cc([C@@H]2c3cc4c(cc3[C@@H](NC(=O)c3ccc(C(C)=O)cc3)C3COC(=O)[C@@H]32)OCO4)cc(OC)c1O (stereo partly specified) | 0.0849 µM (active) | 1.89 µM (inactive) | 2.46 | 0.151 µM (active) | 1.19 µM (inactive) | 1.36 µM (inactive) | 0.264 µM (active) | < 0.01 µM (active) | 2.38 µM (inactive) | 0.895 µM (active) | 2.82 µM (inactive) | 1.46 µM (inactive) | 0.29 µM (active) | 3.88 µM (inactive) | 0.52 µM (active) | 1.35 µM (inactive) | 3.76 µM (inactive) | 0.275 µM (active) | 
4 | COc1ccc(OC(C(=O)O)C(C)C)c2c1CCCC2=O (stereo unspecified) | > 100 µM (inactive) | > 100 µM (inactive) | > 100 | > 100 µM (inactive) |  | > 100 µM (inactive) | > 100 µM (inactive) | > 100 µM (inactive) | > 100 µM (inactive) | > 100 µM (inactive) | > 100 µM (inactive) | > 100 µM (inactive) | > 100 µM (inactive) | > 100 µM (inactive) | > 100 µM (inactive) | > 100 µM (inactive) |  | > 100 µM (inactive) | 
5 | CC(=O)OC12c3ccccc3C1CCCC21OCCCO1 (stereo unspecified) | > 100 µM (inactive) | > 100 µM (inactive) | > 100 | > 100 µM (inactive) |  | > 100 µM (inactive) | > 100 µM (inactive) | > 100 µM (inactive) | > 100 µM (inactive) | > 100 µM (inactive) | > 100 µM (inactive) |  | > 100 µM (inactive) | > 100 µM (inactive) | > 100 µM (inactive) | > 100 µM (inactive) | > 100 µM (inactive) | > 100 µM (inactive) | 
6 | CN/N=C(/Cc1occc(=O)c1O)C(=O)Nc1ccc(C)c(C)c1 | > 100 µM (inactive) | > 100 µM (inactive) | > 100 | > 100 µM (inactive) | > 100 µM (inactive) | > 100 µM (inactive) | > 100 µM (inactive) | > 100 µM (inactive) | > 100 µM (inactive) | > 100 µM (inactive) | > 100 µM (inactive) | > 100 µM (inactive) | > 100 µM (inactive) | > 100 µM (inactive) | > 100 µM (inactive) | > 100 µM (inactive) |  | > 100 µM (inactive) | > 100 µM (inactive)
7 | CN(Cc1ccccc1)C(=NC#N)N(C)Cc1ccccc1 |  | > 100 µM (inactive) | > 100 | > 100 µM (inactive) | > 100 µM (inactive) | > 100 µM (inactive) | > 100 µM (inactive) | > 100 µM (inactive) | > 100 µM (inactive) |  | > 100 µM (inactive) | > 100 µM (inactive) | > 100 µM (inactive) | > 100 µM (inactive) | > 100 µM (inactive) | > 100 µM (inactive) |  | > 100 µM (inactive) | 
8 | CN(C)c1nc(N(C)C)nc(N(C)CN(C)c2ccc(Cl)cc2)n1 | > 100 µM (inactive) |  | > 100 |  |  | > 100 µM (inactive) | > 100 µM (inactive) | > 100 µM (inactive) | 39 µM (inactive) |  | > 100 µM (inactive) | > 100 µM (inactive) | > 100 µM (inactive) | > 100 µM (inactive) | > 100 µM (inactive) | > 100 µM (inactive) | > 100 µM (inactive) | > 100 µM (inactive) | 
9 | O=C1NC(=O)C2C(=O)NC(=O)C1C2(c1ccccc1)c1ccc(Cl)cc1 (stereo unspecified) | > 100 µM (inactive) | > 100 µM (inactive) | > 100 | > 100 µM (inactive) | > 100 µM (inactive) | > 100 µM (inactive) | > 100 µM (inactive) | > 100 µM (inactive) | > 100 µM (inactive) | > 100 µM (inactive) | > 100 µM (inactive) | > 100 µM (inactive) | > 100 µM (inactive) | > 100 µM (inactive) |  | > 100 µM (inactive) | > 100 µM (inactive) | > 100 µM (inactive) | 
10 | CN(/N=C/c1cccc2cccnc12)c1ccccc1 | > 100 µM (inactive) | > 100 µM (inactive) | > 100 | 76.2 µM (inactive) | 51.9 µM (inactive) | 78.3 µM (inactive) | 59.8 µM (inactive) | 79.6 µM (inactive) | 13.2 µM (inactive) | > 100 µM (inactive) | 41.1 µM (inactive) | > 100 µM (inactive) | 59.8 µM (inactive) | 52 µM (inactive) |  | > 100 µM (inactive) | 41.9 µM (inactive) | > 100 µM (inactive) | 
11 | CC1=NOC(=O)C1/N=N/c1ccc(Br)c(C)c1 (stereo unspecified) | 11.8 µM (inactive) | 18 µM (inactive) | 19.3 | 22.3 µM (inactive) | 17.3 µM (inactive) | 26.1 µM (inactive) | 21.6 µM (inactive) | 23.9 µM (inactive) | 17.2 µM (inactive) | 24.9 µM (inactive) | 16.3 µM (inactive) | 12.7 µM (inactive) | 31.2 µM (inactive) | 17.5 µM (inactive) | 17.7 µM (inactive) | 17.9 µM (inactive) | 19.7 µM (inactive) | 18.2 µM (inactive) | 
12 | NC12CC3CC(C1)CC(Cl)(C3)C2 | > 100 µM (inactive) | > 100 µM (inactive) |  | > 100 µM (inactive) | > 100 µM (inactive) | > 100 µM (inactive) | > 100 µM (inactive) | > 100 µM (inactive) | > 100 µM (inactive) | > 100 µM (inactive) | > 100 µM (inactive) |  |  | > 100 µM (inactive) | > 100 µM (inactive) | > 100 µM (inactive) | > 100 µM (inactive) |  | 
13 | Cc1ccc(S(=O)(=O)NCC2CCCCC2=O)cc1 (stereo unspecified) | > 100 µM (inactive) | > 100 µM (inactive) | > 100 |  | 24.2 µM (inactive) | > 100 µM (inactive) | > 100 µM (inactive) | > 100 µM (inactive) | > 100 µM (inactive) | > 100 µM (inactive) | > 100 µM (inactive) | 82.4 µM (inactive) | > 100 µM (inactive) | 16.4 µM (inactive) | > 100 µM (inactive) | > 100 µM (inactive) | > 100 µM (inactive) | > 100 µM (inactive) | 
14 | CN1Cc2c(nc(-c3ccccc3)c[n+]2[O-])N(C)C1 | > 100 µM (inactive) | > 100 µM (inactive) | > 100 | > 100 µM (inactive) | > 100 µM (inactive) | > 100 µM (inactive) | > 100 µM (inactive) | > 100 µM (inactive) | > 100 µM (inactive) | > 100 µM (inactive) | > 100 µM (inactive) | > 100 µM (inactive) | > 100 µM (inactive) | > 100 µM (inactive) |  | > 100 µM (inactive) |  | > 100 µM (inactive) | 
15 | COc1ccc2c(c1)[n+]([O-])c(-c1c(Cl)cccc1Cl)c(N)[n+]2[O-] | 57.7 µM (inactive) | 61.5 µM (inactive) | 31.8 |  | 45.6 µM (inactive) | 87.3 µM (inactive) | 25.1 µM (inactive) | 44.4 µM (inactive) | 38.9 µM (inactive) | > 100 µM (inactive) | 26 µM (inactive) | 22.9 µM (inactive) | 50 µM (inactive) | 23.4 µM (inactive) |  | 61.7 µM (inactive) |  | 46.1 µM (inactive) | 
16 | CCOC(=O)C1=C(N)N(c2ccccc2)/C(=C(/C#N)c2nc3ccccc3[nH]2)S1 | > 100 µM (inactive) | > 100 µM (inactive) | > 100 | > 100 µM (inactive) | > 100 µM (inactive) |  | > 100 µM (inactive) | 43 µM (inactive) | > 100 µM (inactive) | > 100 µM (inactive) | > 100 µM (inactive) | > 100 µM (inactive) | > 100 µM (inactive) | > 100 µM (inactive) | > 100 µM (inactive) | > 100 µM (inactive) | > 100 µM (inactive) | > 100 µM (inactive) | 
17 | C=C1C(=O)C23C(O)CC4C5(C)CCCC4(C(O)OC5)C2C(OC(C)=O)CC1C3O (stereo unspecified) | 1.88 µM (inactive) | 14.6 µM (inactive) | 11.7 | 17.5 µM (inactive) | 3.52 µM (inactive) | 9.02 µM (inactive) | 5.41 µM (inactive) | 4.97 µM (inactive) | 13.2 µM (inactive) | 18 µM (inactive) | 13.8 µM (inactive) | 14.8 µM (inactive) | 14.7 µM (inactive) |  | 5.11 µM (inactive) | 2.75 µM (inactive) |  | 10.6 µM (inactive) | 3.01 µM (inactive)
